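48-hour exposure; five concentrations; linearly interpolated endpoints. GI50 marks 50% less growth.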 Activity calls are given as the source filed them. Rule as the data show it: active = GI50 up to about 1.1 µM and inactive = higher.
How the values were obtained:
Experiment in all cases: NCI tumour cell line growth inhibition, 48 h
T47D = test system: T47D
MOLT-4 = test system: MOLT-4
SW-620 = test system: SW-620
HL-60 = test system: HL-60
SF-539 = test system: SF-539
NCI-H522 = test system: NCI-H522
OVCAR-8 = test system: OVCAR-8
U-251 = test system: U-251
OVCAR-5 = test system: OVCAR-5
NCI-H226 = test system: NCI-H226
OVCAR-4 = test system: OVCAR-4
SF-295 = test system: SF-295
SK-MEL-28 = test system: SK-MEL-28
A549 = test system: A549
MDA-MB-435 = test system: MDA-MB-435
SK-OV-3 = test system: SK-OV-3
UO-31 = test system: UO-31
LOX IMVI = test system: LOX IMVI
HCT-116 = test system: HCT-116
BT-549 = test system: BT-549

Measured: GI50

CC(C)(C)c1cc(C2=NN(c3ccccc3)C(c3ccccc3)C2)cc(C(C)(C)C)c1O (stereo not given)
inactive: T47D 31.5 µM | MOLT-4 > 100 µM | SW-620 > 100 µM | HL-60 12.1 µM | SF-539 > 100 µM | NCI-H522 > 100 µM | OVCAR-8 > 100 µM | U-251 > 100 µM | OVCAR-5 > 100 µM | NCI-H226 > 100 µM | OVCAR-4 > 100 µM | SF-295 > 100 µM | SK-MEL-28 > 100 µM | A549 > 100 µM | MDA-MB-435 > 100 µM | SK-OV-3 > 100 µM | UO-31 > 100 µM | LOX IMVI > 100 µM | HCT-116 > 100 µM | BT-549 > 100 µM

C=CCN1C(=O)/C(=C/c2ccc(Cl)cc2)N=C1SC/C=C/C
inactive: T47D 21 µM | MOLT-4 17.5 µM | SW-620 31.8 µM | HL-60 21.7 µM | SF-539 > 100 µM | NCI-H522 28.4 µM | OVCAR-8 29.5 µM | U-251 27.4 µM | OVCAR-5 37.8 µM | NCI-H226 > 100 µM | OVCAR-4 29.2 µM | SF-295 46.9 µM | SK-MEL-28 53.2 µM | A549 11.2 µM | MDA-MB-435 33.6 µM | SK-OV-3 > 100 µM | UO-31 34.7 µM | LOX IMVI 34 µM | HCT-116 17 µM | BT-549 33.9 µM

C=CC1C(OC2OC(CO)C(O)C(O)C2O)OC=C(C(=O)OC)C1CC1CC(=O)CC(CCc2ccc(O)cc2)O1 (stereo not given)
inactive: T47D > 100 µM | MOLT-4 > 100 µM | SW-620 > 100 µM | HL-60 > 100 µM | SF-539 > 100 µM | NCI-H522 > 100 µM | OVCAR-8 > 100 µM | U-251 > 100 µM | OVCAR-5 > 100 µM | NCI-H226 > 100 µM | OVCAR-4 > 100 µM | SF-295 > 100 µM | SK-MEL-28 > 100 µM | A549 > 100 µM | MDA-MB-435 > 100 µM | SK-OV-3 > 100 µM | UO-31 > 100 µM | LOX IMVI > 100 µM | HCT-116 > 100 µM | BT-549 > 100 µM

O=c1[nH]c2cc(Cl)ccc2nc1/C(=N/Nc1ccccc1)C(O)c1ccco1 (stereo not given)
inactive: T47D > 100 µM | MOLT-4 > 100 µM | SW-620 > 100 µM | HL-60 > 100 µM | SF-539 > 100 µM | NCI-H522 > 100 µM | OVCAR-8 > 100 µM | U-251 > 100 µM | OVCAR-5 > 100 µM | NCI-H226 > 100 µM | OVCAR-4 > 100 µM | SF-295 > 100 µM | SK-MEL-28 > 100 µM | A549 > 100 µM | MDA-MB-435 > 100 µM | SK-OV-3 > 100 µM | UO-31 > 100 µM | LOX IMVI > 100 µM | HCT-116 > 100 µM | BT-549 > 100 µM

Cc1cnc2c(c1)C(=O)N(c1ccc([N+](=O)[O-])cc1)S2(=O)=O
inactive: T47D > 100 µM | MOLT-4 > 100 µM | SW-620 58.7 µM | HL-60 28.2 µM | SF-539 64.6 µM | NCI-H522 25.1 µM | OVCAR-8 > 100 µM | U-251 67.1 µM | OVCAR-5 > 100 µM | NCI-H226 19.9 µM | OVCAR-4 78 µM | SF-295 82.8 µM | SK-MEL-28 74 µM | A549 95.9 µM | MDA-MB-435 70.5 µM | SK-OV-3 > 100 µM | UO-31 > 100 µM | LOX IMVI 73.5 µM | HCT-116 > 100 µM | BT-549 36.1 µM

CCOC(=O)C(NC(=O)CC(C)C)(Nc1ccc(S(=O)(=O)Nc2nc(C)cc(C)n2)cc1)C(F)(F)F (stereo not given)
inactive: T47D > 100 µM | MOLT-4 > 100 µM | SW-620 > 100 µM | HL-60 > 100 µM | SF-539 > 100 µM | NCI-H522 > 100 µM | OVCAR-8 > 100 µM | U-251 > 100 µM | OVCAR-5 > 100 µM | NCI-H226 > 100 µM | OVCAR-4 > 100 µM | SF-295 > 100 µM | SK-MEL-28 > 100 µM | A549 > 100 µM | MDA-MB-435 > 100 µM | SK-OV-3 > 100 µM | UO-31 > 100 µM | LOX IMVI > 100 µM | HCT-116 > 100 µM | BT-549 > 100 µM

COc1ccc(C(=O)N2CCN(c3ccc4c(c3)OCC(=O)N4)CC2)cc1
inactive: T47D > 100 µM | MOLT-4 > 100 µM | SW-620 > 100 µM | HL-60 64.6 µM | SF-539 > 100 µM | NCI-H522 95.9 µM | OVCAR-8 > 100 µM | U-251 > 100 µM | OVCAR-5 > 100 µM | NCI-H226 > 100 µM | OVCAR-4 > 100 µM | SF-295 > 100 µM | SK-MEL-28 > 100 µM | A549 > 100 µM | MDA-MB-435 > 100 µM | SK-OV-3 > 100 µM | UO-31 > 100 µM | LOX IMVI > 100 µM | HCT-116 > 100 µM | BT-549 > 100 µM

CC(C)NC1(C(N)=O)CCN(Cc2ccccc2)CC1
inactive: T47D > 100 µM | MOLT-4 > 100 µM | SW-620 > 100 µM | HL-60 > 100 µM | SF-539 > 100 µM | NCI-H522 > 100 µM | OVCAR-8 > 100 µM | U-251 > 100 µM | OVCAR-5 > 100 µM | NCI-H226 > 100 µM | OVCAR-4 > 100 µM | SF-295 > 100 µM | SK-MEL-28 > 100 µM | A549 > 100 µM | MDA-MB-435 > 100 µM | SK-OV-3 > 100 µM | UO-31 > 100 µM | LOX IMVI > 100 µM | HCT-116 > 100 µM | BT-549 > 100 µM

N#C/C(=C\c1ccc(Cl)cc1)c1nc(-c2cc3ccccc3oc2=O)cs1
inactive: T47D 44 µM | MOLT-4 > 100 µM | SW-620 > 100 µM | HL-60 > 100 µM | SF-539 39.8 µM | NCI-H522 15.6 µM | OVCAR-8 49.2 µM | U-251 30.8 µM | OVCAR-5 > 100 µM | NCI-H226 39 µM | OVCAR-4 33.5 µM | SF-295 44.4 µM | SK-MEL-28 95.9 µM | A549 86.5 µM | MDA-MB-435 > 100 µM | SK-OV-3 84.5 µM | UO-31 80.7 µM | LOX IMVI 59.6 µM | HCT-116 67.6 µM | BT-549 14.9 µM

— ChEMBL document CHEMBL1201862, “PubChem BioAssay data set” (2004)
